Laboratory results reported in patent publication US20230257372A1 (CHONG KUN DANG PHARMACEUTICAL CORP., priority 2020, published 2023).
Where two headings read alike, the source gives them in different places.

What was measured:
human recombinant HDAC6 = biological target: T1, human recombinant HDAC6 (Homo sapiens, UniProt Q9UBN7); experiment: HDAC6 enzyme activity inhibition (HDAC Fluorimetric Drug Discovery Kit); format: biochemical
T1 construct: purchased Calbiochem Inc. 382180
T1 sequence (Q9UBN7 1-1215): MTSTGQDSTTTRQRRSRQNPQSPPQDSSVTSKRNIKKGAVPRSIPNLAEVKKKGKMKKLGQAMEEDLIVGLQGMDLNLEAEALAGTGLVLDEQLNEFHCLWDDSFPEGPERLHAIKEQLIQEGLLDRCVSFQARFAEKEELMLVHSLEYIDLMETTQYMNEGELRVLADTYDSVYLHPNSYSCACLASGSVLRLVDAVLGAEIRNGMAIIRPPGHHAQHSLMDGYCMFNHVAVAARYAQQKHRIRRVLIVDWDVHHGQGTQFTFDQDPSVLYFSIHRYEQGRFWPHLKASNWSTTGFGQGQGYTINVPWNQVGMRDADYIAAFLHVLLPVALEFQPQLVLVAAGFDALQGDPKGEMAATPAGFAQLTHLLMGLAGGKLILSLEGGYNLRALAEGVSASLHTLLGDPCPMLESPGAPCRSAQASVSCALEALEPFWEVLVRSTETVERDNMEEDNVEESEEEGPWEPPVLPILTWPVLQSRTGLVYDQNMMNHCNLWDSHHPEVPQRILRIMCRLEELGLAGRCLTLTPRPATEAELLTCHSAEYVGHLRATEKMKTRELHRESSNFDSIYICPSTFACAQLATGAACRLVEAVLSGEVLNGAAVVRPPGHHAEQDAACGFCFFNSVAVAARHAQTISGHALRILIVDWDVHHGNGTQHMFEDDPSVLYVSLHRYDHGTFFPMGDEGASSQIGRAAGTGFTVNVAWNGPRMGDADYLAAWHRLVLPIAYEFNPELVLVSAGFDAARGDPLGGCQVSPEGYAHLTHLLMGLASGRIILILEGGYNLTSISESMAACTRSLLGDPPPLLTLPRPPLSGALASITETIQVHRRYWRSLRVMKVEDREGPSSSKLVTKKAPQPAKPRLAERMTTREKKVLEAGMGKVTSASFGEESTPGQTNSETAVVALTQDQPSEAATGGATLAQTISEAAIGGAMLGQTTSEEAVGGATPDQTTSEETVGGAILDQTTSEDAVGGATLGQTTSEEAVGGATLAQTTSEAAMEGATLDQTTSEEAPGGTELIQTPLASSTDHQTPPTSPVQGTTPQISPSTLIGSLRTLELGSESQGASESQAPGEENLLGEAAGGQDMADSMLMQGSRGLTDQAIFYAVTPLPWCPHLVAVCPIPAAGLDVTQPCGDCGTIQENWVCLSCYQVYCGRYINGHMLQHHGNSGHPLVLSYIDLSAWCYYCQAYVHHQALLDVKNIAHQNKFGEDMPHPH
Summary of the method: (§1)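 Enzyme at 0.3 µg per well was reacted with 10 μM fluorogenic substrate in presence of 5-fold diluted compound, 30° C for 60 min.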

[1] = test system: hippocampal neurons from a Sprague-Dawley (SD) rat fetus; experiment: Effect of HDAC6-specific inhibitor on axonal transport of mitochondria in amyloid-beta treated neurons; format: cell-based; conditions: transport velocity of mitochondria in neuronal axon after normalization; vehicle = 100%, amyloid beta treatment group = 0%; compound treatment for three hours
Procedure: On the 17th to 18th days (E17-18) of insemination, the hippocampal neurons from a Sprague-Dawley (SD) rat fetus were cultured in a culture container for imaging, which had been coated with extracellular matrix, and were treated with amyloid-beta protein fragments at a concentration of […]. In 24 hours later, the neurons were treated with the compound on the 8th day of in vitro culture. In three hours later, the resulting neurons were treated with MitoTracker Red CMXRos (Life Technologies, NY, USA) for last five minutes to stain mitochondria. An image on the axonal transport of stained neuron mitochondria was taken with a confocal microscope (Leica SP8; Leica microsystems, UK) at an interval of one second for one minute to measure a transport velocity of each mitochondria per second with an IMARIS analysis program (BITPLANE, Zurich, Switzerland).
In result, after setting a section, in which the group treated with amyloid-beta had shown a significant decrease in the transport velocity of mitochondria compared to a vehicle, it was confirmed for 1,3,4-oxadiazole triazol derivative compounds of the present invention, stereoisomers thereof or pharmaceutically acceptable salts thereof that the vehicles is represented as 100%, the amyloid beta treatment group is represented as 0%, a velocity distribution of the compound after normalization is represented as *, 0%˜50%; **, 50%˜100%; ***, >100%.

human recombinant HDAC1 = biological target: T2, human recombinant HDAC1 (Homo sapiens, UniProt Q13547); experiment: HDAC1 enzyme activity inhibition (HDAC Fluorimetric Drug Discovery Kit); format: biochemical; conditions: read-out: HDAC1
T2 construct: purchased Enzo Life Science, Inc. BML-SE456
T2 sequence (Q13547 whole entry): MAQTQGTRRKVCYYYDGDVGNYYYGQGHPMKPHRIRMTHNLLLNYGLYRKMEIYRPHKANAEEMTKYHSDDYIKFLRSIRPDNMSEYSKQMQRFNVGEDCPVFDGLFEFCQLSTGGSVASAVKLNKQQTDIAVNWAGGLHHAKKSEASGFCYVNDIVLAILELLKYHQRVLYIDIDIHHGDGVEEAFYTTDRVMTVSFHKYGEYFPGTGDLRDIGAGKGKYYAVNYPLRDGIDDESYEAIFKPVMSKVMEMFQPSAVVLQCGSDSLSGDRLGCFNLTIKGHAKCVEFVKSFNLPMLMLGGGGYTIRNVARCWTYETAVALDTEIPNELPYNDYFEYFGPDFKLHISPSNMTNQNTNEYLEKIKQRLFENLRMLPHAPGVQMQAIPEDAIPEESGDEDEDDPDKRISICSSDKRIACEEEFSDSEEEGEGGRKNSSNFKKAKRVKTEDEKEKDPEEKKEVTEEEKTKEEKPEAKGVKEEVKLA
Summary of the method: as §1

[2] = human recombinant HDAC6, IC50 calculated with GraphPad Prism
[3] = human recombinant HDAC1, IC50 calculated with GraphPad Prism
[4] = human recombinant HDAC6, same protocol as HDAC1
[5] = human recombinant HDAC1, Fluor de Lys substrate, 30° C. 60 minutes

| Compound | HDAC6 selectivity (fold) (human recombinant HDAC6; HDAC1 IC50 / HDAC6 IC50) | IC50 (human recombinant HDAC6; [2]) [nM] | IC50 (human recombinant HDAC1; [3]) [nM] | HDAC6 selectivity (fold) (human recombinant HDAC6; HDAC6 over HDAC1) | IC50 (human recombinant HDAC6; [4]) [nM] | IC50 (human recombinant HDAC1; [5]) [nM] | Velocity distribution (%) [1] |
| --- | --- | --- | --- | --- | --- | --- | --- |
| Fc1cc(-c2nnc(C(F)F)o2)ccc1Cn1cc(-c2ccccc2)nn1 [Compound 3658, 2-(difluoromethyl)-5-(3-fluoro-4-((4-phenyl-1H-1,2,3-triazol-1-yl)methyl)phenyl)-1,3,4-oxadiazole] | 863 | 57.9 | > 50000 | – | – | – | * (*, 0%˜50%) |
| FC(F)c1nnc(-c2ccc(Cn3cc(-c4ccccc4)nn3)nc2)o1 [Compound 3736, 2-(difluoromethyl)-5-(6-((4-phenyl-1H-1,2,3-triazol-1-yl)methyl)pyridin-3-yl)-1,3,4-oxadiazole] | 2252 | 22.2 | > 50000 | – | – | – | *** (***, >100%) |
| Cc1ccc(-c2cn(Cc3ccc(-c4nnc(C(F)F)o4)cn3)nn2)cc1 [Compound 3738, 2-(difluoromethyl)-5-(6-((4-(p-tolyl)-1H-1,2,3-triazol-1-yl)methyl)pyridin-3-yl)-1,3,4-oxadiazole] | 1136 | 44 | > 50000 | – | – | – | *** (***, >100%) |
| CC(=O)Nc1cccc(-c2cn(Cc3ccc(-c4nnc(C(F)F)o4)cc3F)nn2)c1 [Compound 3775, N-(3-(1-(4-(5-(difluoromethyl)-1,3,4-oxadiazol-2-yl)-2-fluorobenzyl)-1H-1,2,3-triazol-4-yl)phenyl)acetamide] | 1712 | 29.2 | > 50000 | – | – | – | * (*, 0%˜50%) |
| COC(=O)Nc1cccc(-c2cn(Cc3ccc(-c4nnc(C(F)F)o4)cc3F)nn2)c1 [Compound 3776, Methyl (3-(1-(4-(5-(difluoromethyl)-1,3,4-oxadiazol-2-yl)-2-fluorobenzyl)-1H-1,2,3-triazol-4-yl)phenyl)carbamate] | 1984 | 25.2 | > 50000 | – | – | – | *** (***, >100%) |
| O=C(Nc1cccc(-c2cn(Cc3ccc(-c4nnc(C(F)F)o4)cc3F)nn2)c1)C(F)(F)F [Compound 3777, N-(3-(1-(4-(5-(difluoromethyl)-1,3,4-oxadiazol-2-yl)-2-fluorobenzyl)-1H-1,2,3-triazol-4-yl)phenyl)-2,2,2-trifluoroacetamide] | 2222 | 22.5 | > 50000 | – | – | – | * (*, 0%˜50%) |
| FC(F)c1nnc(-c2ccc(Cn3nnc(-c4ccccc4)n3)nc2)o1 [Compound 4234, 2-(difluoromethyl)-5-(6-((5-phenyl-2H-tetrazol-2-yl)methyl)pyridin-3-yl)-1,3,4-oxadiazole] | – | – | > 50000 | – | – | – | *** (***, >100%) |
| Fc1cc(-c2nnc(C(F)F)o2)ccc1Cn1cc(-c2ccc3[nH]ncc3c2)nn1 [Compound 4345, 2-(4-((4-(1H-indazol-5-yl)-1H-1,2,3-triazol-1-yl)methyl)-3-fluorophenyl)-5-(difluoromethyl)-1,3,4-oxadiazole] | – | – | > 50000 | – | – | – | * (*, 0%˜50%) |
| Fc1cc(-c2nnc(C(F)F)o2)cnc1Cn1cc(-c2cccc(CN3CCCC3)c2Cl)nn1 [Compound 19089] | – | – | – | 665 | 75.1 | > 50000 | – |
| CN(C)Cc1cc(Cl)cc(-c2cn(Cc3ncc(-c4nnc(C(F)F)o4)cc3F)nn2)c1 [Compound 19090, 1-(3-chloro-5-(1-((5-(5-(difluoromethyl)-1,3,4-oxadiazol-2-yl)-3-fluoropyridin-2-yl)methyl)-1H-1,2,3-triazol-4-yl)phenyl)-N,N-dimethylmethanamine] | – | – | – | 728 | 68.6 | > 50000 | – |
| Fc1cc(-c2nnc(C(F)F)o2)cnc1Cn1cc(-c2cc(Cl)cc(CN3CCC3)c2)nn1 [Compound 19091, 2-(6-((4-(3(-azetidin-1-ylmethyl)-5-chlorophenyl)-1H-1,2,3-triazol-1-yl)methyl)-5-fluoropyridin-3-yl)-5-(difluoromethyl)-1,3,4-oxadiazole] | – | – | – | 435 | 115 | > 50000 | – |

Second part, led by results:

| HDAC6 selectivity (fold) (human recombinant HDAC6; HDAC1 IC50 / HDAC6 IC50) | IC50 (human recombinant HDAC6; [2]) [nM] | IC50 (human recombinant HDAC1; [3]) [nM] | HDAC6 selectivity (fold) (human recombinant HDAC6; HDAC6 over HDAC1) | IC50 (human recombinant HDAC6; [4]) [nM] | IC50 (human recombinant HDAC1; [5]) [nM] | Compound | Velocity distribution (%) [1] |
| --- | --- | --- | --- | --- | --- | --- | --- |
| – | – | – | 541 | 92.4 | > 50000 | Fc1cc(-c2nnc(C(F)F)o2)cnc1Cn1cc(-c2cc(Cl)cc(CN3CCCC3)c2)nn1 [Compound 19092, 2-(6-((4-(3-chloro-5-(pyrrolidin-1-ylmethyl)phenyl)-1H-1,2,3-triazol-1-yl)methyl)-5-fluoropyridin-3-yl)-5-(difluoromethyl)-1,3,4-oxadiazole] | – |
| – | – | – | 211 | 236 | > 50000 | CC1CCN(Cc2cc(Cl)cc(-c3cn(Cc4ncc(-c5nnc(C(F)F)o5)cc4F)nn3)c2)CC1 [Compound 19093, 2-(6-((4-(3-chloro-5-((4-methylpiperidin-1-yl)methyl)phenyl)-1H-1,2,3-triazol-1-yl)methyl)-5-fluoropyridin-3-yl)-5-(difluoromethyl)-1,3,4-oxadiazole] | – |
| – | – | – | 510 | 98 | > 50000 | CN(C)Cc1ccc(-c2cn(Cc3ncc(-c4nnc(C(F)F)o4)cc3F)nn2)cc1Cl [Compound 19094, 1-(2-chloro-4-(1-((5-(5-(difluoromethyl)-1,3,4-oxadiazol-2-yl)-3-fluoropyridin-2-yl)methyl)-1H-1,2,3-triazol-4-yl)phenyl)-N,N-dimethylmethanamine] | – |
| – | – | – | 529 | 94.4 | > 50000 | Fc1cc(-c2nnc(C(F)F)o2)cnc1Cn1cc(-c2ccc(CN3CCCC3)c(Cl)c2)nn1 [Compound 19096] | – |
| – | – | – | 1315 | 38 | > 50000 | CN(C)Cc1ccc(-c2cn(Cc3ncc(-c4nnc(C(F)F)o4)cc3F)nn2)c(Cl)c1 [Compound 19098, 1-(3-chloro-4-(1-((5-(5-(difluoromethyl)-1,3,4-oxadiazol-2-yl)-3-fluoropyridin-2-yl)methyl)-1H-1,2,3-triazol-4-yl)phenyl)-N,N-dimethylmethanamine] | – |
| – | – | – | 1061 | 47.1 | > 50000 | Fc1cc(-c2nnc(C(F)F)o2)cnc1Cn1cc(-c2ccc(CN3CCC3)cc2Cl)nn1 [Compound 19099, 2-(6-((4-(4-(azetidin-1-ylmethyl)-2-chlorophenyl)-1H-1,2,3-triazol-1-yl)methyl)-5-fluoropyridin-3-yl)-5-(difluoromethyl)-1,3,4-oxadiazole] | – |
| – | – | – | 868 | 57.6 | > 50000 | Fc1cc(-c2nnc(C(F)F)o2)cnc1Cn1cc(-c2ccc(CN3CCCC3)cc2Cl)nn1 [Compound 19100, 2-(6-((4-(2-chloro-4-(pyrrolidin-1-ylmethyl)phenyl)-1H-1,2,3-triazol-1-yl)methyl)-5-fluoropyridin-3-yl)-5-(difluoromethyl)-1,3,4-oxadiazole] | – |
